Measured values reported in US20110313153A1, “5-HT4 INHIBITORS FOR TREATING AIRWAY DISEASES, IN PARTICULAR ASTHMA” (priority 2009, published 2011).
Entries after “also recorded” stand apart in the source; their conditions may differ.

How the values were obtained:
GI tract [1] = experiment: Effect of the antagonist by itself on the studied GI functions; assay type: in vivo, dog; conditions: without agonist
From the text: (§1) Also the aroylated 4-aminomethylpiperidines 5-HT4 receptor antagonists (hereinafter also referred to as the compounds) of the present invention (e.g. compound M0014) were capable to suppress or inverse the 5-HT4 R-mediated prokinetic activity of serotonin or 5-HT4 R agonists in the GI tract (data not shown). For example, in conscious dogs, low doses of M0014 reversed the selective serotonin re-uptake inhibitor (SSRI)-induced loss of fundic compliance. […] As a final example, the compound reversed the 5-HT4 R agonist-induced stimulation of canine antral motility, measured with chronically implanted strain gauges.
Similar to SB-207266, the 5-HT4 R antagonist M0014 had by itself no effect on the studied GI functions mentioned above.

conscious dogs = experiment: SSRI-induced loss of fundic compliance in conscious dogs; assay type: in vivo, dog; conditions: low doses, data not shown
From the text: as §1

dog [2] = experiment: Canine antral motility measured with chronically implanted strain gauges; assay type: in vivo; conditions: data not shown
From the text: as §1

OVA-sensitized mice [3] = experiment: OVA-induced experimental asthma in mice: BAL cell infiltrate and MLN cytokines; assay type: in vivo, BALB/c mice
Procedure: (§2) BALB/c mice (n=6-8 per group) were sensitized to OVA by i.p. injection of OVA/alum (10 μg OVA grade V adsorbed to 1 mg aluminium hydroxide; Sigma-Aldrich) on days 0 and 7 and were subjected to OVA aerosol challenges (grade III) on days 17-19; aerosol challenges were dispensed from a jet nebulizer delivering 1% OVA in PBS for 30 minutes. Thirty minutes before each OVA exposure, mice were anesthetized using Avertin (Sigma-Aldrich) and received an i.t. injection of control vehicle, or of M0014 (0.1, 0.4 or 4 nM in PBS) in a volume of 80 μl. Twenty-four hours after the last OVA exposure, BAL was performed and LNs were resected and digested using collagenase/DNAse.
Flow cytometry and sorting. After counting and washing, BAL cells were stained for 30 minutes with FITC-labeled anti-I-Ad/I-Ed (macrophages/DCs), PE-labeled anti-CCR3 (eosinophils), Cy-chrome-labeled anti-CD3 and anti-CD19 (lymphocytes), and allophycocyanin-labeled (APClabeled) anti-CD11c (macrophages/DCs) in PBS containing 0.5% BSA and 0.01% sodium azide. Differential cell counts were analyzed by flow cytometry, as previously described (van Rijt et al., 2004).
Cytokine measurements. To measure cytokine levels, MLN cells were plated in round-bottomed 96-well plates (1×10^6 cells/ml) and restimulated with OVA (10 μg/ml) for 4 days. The presence of IL-4, IL-5, IL-13 and IFN-γ was assayed on supernatants by ELISA (BD).

dog [4] = experiment: Dog model of delayed gastric emptying of a liquid meal; assay type: in vivo; conditions: data not shown
From the text: as §1

OVA-sensitized mice [5] = experiment: Bronchial hyperreactivity (BHR) to i.v. metacholine, dynamic resistance and compliance; assay type: in vivo, BALB/c mice; conditions: M0014 prior to each allergen challenge; measured 24 hours after the last OVA aerosol; FIG. 2
Procedure: as §2
For the measurement of dynamic resistance and compliance, mice were anesthetized with urethane, paralyzed using d-tubocurarine, tracheotomized, and intubated with an 18-gauge catheter, followed by mechanical ventilation with a Flexivent apparatus (SCIREQ). Respiratory frequency was set at 120 breaths per min with a tidal volume of 0.2 ml and a positive end-expiratory pressure of […]. Increasing concentrations of metacholine were administered via the jugular vein. Dynamic resistance and compliance was recorded after a standardized inhalation maneuver given every 10 seconds for 2 minutes. Baseline resistance was restored before administering the subsequent doses of metacholine.

Balb/c mice = experiment: Zymosan induced inflammatory cell recruitment to the lung; assay type: in vivo, Female Balb/c mice
Procedure: Female Balb/c mice (7-8 weeks; 20 g) were used in all studies. The animals were kept in standard animal holding facilities and have unlimited access to food and water. Animals were randomized to receive vehicle or 0.1-0.2 ml/20 g mouse, M0014 (0.001, 0.01, 0.1 and 1 mg/kg) via the oral route 30 min prior to, and 6 h after the administration of zymosan (i.n; 20 μL to each nostril, to give a total volume of administration of 40 μL). Animals received zymosan A to give a total dose of 4 mg/mouse.
5 mg of M0014 was dissolved in 5 mL of sterile water to give 1 mg/ml solution. The solutions were prepared freshly each time. The 1 mg/ml solution was diluted to a 0.1, 0.01, 0.001 and 0.0001 mg/ml solution. From these concentrations, 0.2 ml was administered orally to obtain 1, 0.1, 0.01 and 0.001 mg/kg respectively. Sterile water used as control vehicle.
Twenty-four hours after dosing, the mice were killed by overdose with an injectable anaesthetic and 0.5 ml of saline was injected into lung via a tracheal cannula and the fluid collected. This was repeated 3 times. Approximately 1 ml of lavage fluid was collected and stored on ice. Total cells and differential cells were counted and a reduction in neutrophil numbers was the primary end point.

guinea-pigs = conditions: antigen induced, guinea pig model; cited from earlier work
[6] = test system: human airway epithelial cells, dendritic cells, monocytes; conditions: no effect of the antagonist per se described; cited from earlier work
GI tract [7] = conditions: Sanger et al., cited from earlier work
[8] = MLN cells restimulated with OVA for 4 days, ELISA, FIG. 1C and D
[9] = i.t. 80 μl, 0.1, 0.4 or 4 nM, 30 minutes prior to each allergen challenge, FIG. 1A

COCCCN1CC[C@@H](CNC(=O)c2cc(C)cc3c2OCCCO3)[C@H](O)C1 (relative stereo) [M0014, (3S-trans)-8-methyl-3,4-dihydro-3H-benzo[b][1,4]dioxepine-6-carboxylic acid [3-hydroxy-1-(3-methoxy-propyl)-piperidine-4-ylmethyl]-amide]
effect by itself on the studied GI functions (GI tract [1]): no effect
SSRI-induced loss of fundic compliance (conscious dogs): reversed
5-HT4 R agonist-induced stimulation of canine antral motility (dog [2]): reversed
IFN-γ production in the MLNs (OVA-sensitized mice [3]; [8]): weak increase
levels of IL-4 in the MLNs (OVA-sensitized mice [3]; [8]): mildly but significantly reduced
levels of IL-5 in the MLNs (OVA-sensitized mice [3]; [8]): mildly but significantly reduced
levels of IL-13 in the MLNs (OVA-sensitized mice [3]; [8]): mildly but significantly reduced
eosinophil infiltrate into the BAL compartment (OVA-sensitized mice [3]; [9]): significant dose-dependent reduction
lymphocyte infiltrate into the BAL compartment (OVA-sensitized mice [3]; [9]): significant dose-dependent reduction
macrophage infiltrate into the BAL compartment (OVA-sensitized mice [3]; [9]): significant dose-dependent reduction
5-HT4 R agonist-induced acceleration of gastric emptying (dog [4]): potently inhibited
OVA-induced change in metacholine responsiveness (OVA-sensitized mice [5]): markedly attenuated
neutrophil cell number (Balb/c mice; FIG. 3 legend, <0.05 cf zymosan alone): significant effect
total number of cells recruited to the airways (Balb/c mice; oral, 0.01 and 0.1 mg/kg, 30 min prior to and 6 h after zymosan, P<0.05 Dunnett's test versus control, FIG. 3a): significant effect; also recorded: significantly reduced
decrease in the recruitment of neutrophils to the airways (Balb/c mice; oral, 0.01 and 0.1 mg/kg, P<0.01 Dunnett's test vs control, FIG. 3c): 40-50%

Cn1cc(C(=O)OCC2CCN(CCNS(C)(=O)=O)CC2)c2ccccc21 [GR113808]
airway hyperresponsiveness (guinea-pigs): capable to normalize

COc1cc(COc2cc(N)c(Cl)cc2C(=O)CCC2CCN(CCNS(C)(=O)=O)CC2)cc(OC)c1 [RS 39604]
effects of 5-HT [6]: inhibit

CCCCN1CCC(CNC(=O)c2c3n(c4ccccc24)CCCO3)CC1 [piboserod]
5-HT4 R-mediated effects of serotonin (5-HT) in the GI tract (GI tract [7]; 2000, Bharucha et al.): antagonizes
normal bowel motility (GI tract [7]; animals or humans, 1998): does not seem to affect
